Drawing on patent US11992012B2, “Diaminotriazine compounds” (BASF SE, priority 2018, dated 2024), this text covers herbicidal activity for 32 compounds.

What all share (experiment): greenhouse pre-emergence herbicidal test
Format in all cases: in vivo
Conditions in all cases: 250 g/ha, scale 0 to 100

The test system of one experiment is Echinocloa crus-galli. The method, boiled down: (§1)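 Seeds sown in loamy sand (~3.0% humus); compounds suspended or emulsified in water, sprayed directly after sowing, pots covered until rooting. Kept at 10-25° C. or 20-35° C. by species for 2 to 4 weeks. Damage scored visually 0-100 (100 = no emergence or complete aerial destruction).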
For the next experiment, the system named is Abutilon theophrasti. The method, boiled down: (§2)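 Compounds suspended or emulsified in water were sprayed onto loamy sand (about 3.0% humus) right after sowing; pots were hooded until rooting. Damage was scored on a 0–100 scale (100 = no emergence or complete aerial destruction, 0 = normal growth) after 2 to 4 weeks.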
The subject of the next experiment is Setaria faberi. The method, boiled down:
as §2

A further experiment has as its system Amaranthus retroflexus. The method, boiled down: as §1

The structures appear in SMILES notation.

In the case of `COC(C)c1nc(N)nc(Nc2c(F)c(F)cc(F)c2OCc2ccccc2Cl)n1` (stereo not drawn) [Example 243], the herbicidal activity with Echinocloa crus-galli, in the experiment with Abutilon theophrasti and with Setaria faberi was 85% in each case.

Consider `CC(C)(F)c1nc(N)nc(Nc2c(F)cccc2OCc2ccccc2F)n1` [Example 27], for which the herbicidal activity with Echinocloa crus-galli, in the experiment on Abutilon theophrasti and with Setaria faberi was 100% in each case.

For `COc1ccccc1COc1ccc(F)c(F)c1Nc1nc(N)nc(C(C)(C)F)n1` [Example 198], the values for the herbicidal activity in the experiment on Echinocloa crus-galli, in the experiment with Abutilon theophrasti and in the experiment on Setaria faberi were 100%, 98% and 100%, respectively.

As to `COc1ccccc1COc1c(F)ccc(F)c1Nc1nc(N)nc(C(C)(C)F)n1` [Example 173], the herbicidal activity with Amaranthus retroflexus, with Echinocloa crus-galli and in the experiment on Abutilon theophrasti was 100% in each case.

In the case of `CC(C)c1ccccc1COc1c(F)cc(F)c(F)c1Nc1nc(N)nc(C(C)(C)F)n1` [Example 208], the herbicidal activity with Amaranthus retroflexus was 80%; in the experiment with Abutilon theophrasti it was 90%.

Turning to `COC(C)(C)c1nc(N)nc(Nc2c(F)c(F)cc(F)c2OCc2ccccc2Cl)n1` [Example 251], the figures for the herbicidal activity in the experiment with Echinocloa crus-galli, with Abutilon theophrasti and with Setaria faberi were 95%, 98% and 100%, respectively.

For the compound `CC(C)(F)c1nc(N)nc(Nc2c(F)ccc(Br)c2OCc2ccccc2)n1` [Example 223], the herbicidal activity with Echinocloa crus-galli came to 95%; with Abutilon theophrasti, 100%; with Setaria faberi, 100%.

For the compound `CC(C)(F)c1nc(N)nc(Nc2c(F)c(F)cc(F)c2OCc2ccccc2Br)n1` [Example 232], the herbicidal activity with Echinocloa crus-galli, in the experiment with Abutilon theophrasti and in the experiment on Setaria faberi was 100% in each case.

As to `Nc1nc(Nc2c(F)cccc2OCc2ccccc2)nc(C(F)C2CCCC2)n1` (stereo not drawn) [Example 202], the herbicidal activity was determined as 80% in the experiment on Echinocloa crus-galli, 80% in the experiment on Abutilon theophrasti and 85% with Setaria faberi.

Turning to `CC(C)(F)c1nc(N)nc(Nc2c(F)c(F)cc(Br)c2OCc2ccccc2)n1` [Example 222], the herbicidal activity is listed as 100% in the experiment on Echinocloa crus-galli, 98% in the experiment on Abutilon theophrasti and 100% with Setaria faberi.

Consider `COC(C)(C)c1nc(N)nc(Nc2c(F)c(F)cc(F)c2OCc2cccc(F)c2)n1` [Example 249], for which the herbicidal activity in the experiment on Echinocloa crus-galli, with Abutilon theophrasti and in the experiment with Setaria faberi was 100% throughout.

Consider `CC(C)(F)c1nc(N)nc(Nc2c(F)cccc2OCc2cc(F)cc(F)c2)n1` [Example 43], for which the herbicidal activity with Amaranthus retroflexus, in the experiment with Echinocloa crus-galli and with Abutilon theophrasti was 100% throughout.

With `COc1ccccc1COc1cccc(F)c1Nc1nc(N)nc(C(C)(C)F)n1` [Example 100], the figures for the herbicidal activity in the experiment with Amaranthus retroflexus, in the experiment with Echinocloa crus-galli and in the experiment on Abutilon theophrasti were 100%, 100% and 80%, respectively.

For the compound `CC(C)(F)c1nc(N)nc(Nc2c(F)c(F)cc(F)c2OCc2ccc(Cl)cc2)n1` [Example 207], the herbicidal activity was found to be 100% in the experiment on Echinocloa crus-galli, 90% in the experiment on Abutilon theophrasti and 100% in the experiment on Setaria faberi.

Consider `CCCC(F)c1nc(N)nc(Nc2c(F)cccc2OCc2ccccc2)n1` (stereo not drawn) [Example 77], for which the herbicidal activity was found to be 100% in the experiment with Echinocloa crus-galli, 80% with Abutilon theophrasti and 100% with Setaria faberi.

Turning to `CC(C)(F)c1nc(N)nc(Nc2c(F)cccc2OCc2ncco2)n1` [Example 70], the herbicidal activity with Amaranthus retroflexus, in the experiment on Echinocloa crus-galli and in the experiment on Abutilon theophrasti was 100% each time.

As to `Cc1ccc(COc2c(F)cc(F)c(F)c2Nc2nc(N)nc(C(C)(C)F)n2)cc1` [Example 183], the herbicidal activity in the experiment on Echinocloa crus-galli, in the experiment on Abutilon theophrasti and in the experiment on Setaria faberi was 100% in each case.

For `CC(C)(F)c1nc(N)nc(Nc2c(F)cccc2OCc2cccc(Br)c2)n1` [Example 44], the herbicidal activity in the experiment with Abutilon theophrasti and in the experiment with Setaria faberi was 70% in each case.

Take `COCc1ccccc1COc1c(F)cc(F)c(F)c1Nc1nc(N)nc(C(C)(C)F)n1` [Example 224]: the herbicidal activity with Echinocloa crus-galli came out at 90%; in the experiment with Abutilon theophrasti it was 100%; in the experiment with Setaria faberi it was 100%.

For the compound `CC(C)(C)c1nc(N)nc(Nc2c(F)c(F)cc(F)c2OCc2ccccc2)n1` [Example 200], the herbicidal activity in the experiment with Echinocloa crus-galli, in the experiment on Abutilon theophrasti and in the experiment with Setaria faberi was 100% each time.

On to `Cc1ccc(COc2c(F)ccc(F)c2Nc2nc(N)nc(C(C)(C)F)n2)cc1` [Example 141], for which the herbicidal activity is reported as 100% with Echinocloa crus-galli, 98% with Abutilon theophrasti and 100% in the experiment on Setaria faberi.

`CC(C)(Cl)c1nc(N)nc(Nc2c(F)c(F)cc(F)c2OCc2ccccc2)n1` [Example 246]: the herbicidal activity with Amaranthus retroflexus, with Echinocloa crus-galli and with Abutilon theophrasti was 100% throughout.

As for `COCc1cccc(COc2c(F)cc(F)c(F)c2Nc2nc(N)nc(C(C)(C)F)n2)c1` [Example 219], the values for the herbicidal activity in the experiment with Echinocloa crus-galli, with Abutilon theophrasti and in the experiment with Setaria faberi were 85%, 100% and 100%, respectively.

Turning to `CC(C)(F)c1nc(N)nc(Nc2c(F)ccc(F)c2OCc2ccccc2F)n1` [Example 172], the herbicidal activity with Echinocloa crus-galli, in the experiment on Abutilon theophrasti and in the experiment with Setaria faberi was 100% in each case.

Take `Cc1ccc(F)c(Nc2nc(N)nc(C(C)(C)F)n2)c1OCc1ccccc1` [Example 175]: the herbicidal activity in the experiment on Echinocloa crus-galli is listed as 100%; with Abutilon theophrasti it was 85%; in the experiment with Setaria faberi it was 95%.

`Cc1c(F)cccc1COc1cccc(F)c1Nc1nc(N)nc(C(C)(C)F)n1` [Example 102]: the herbicidal activity worked out at 100% in the experiment with Echinocloa crus-galli, 85% in the experiment on Abutilon theophrasti and 100% in the experiment with Setaria faberi.

Turning to `CC(C)(F)c1nc(N)nc(Nc2c(F)cccc2OCc2nc(C3CC3)no2)n1` [Example 42], the herbicidal activity in the experiment on Amaranthus retroflexus is recorded as 100%; in the experiment with Abutilon theophrasti, 80%.

As to `Cc1cccc(COc2cccc(F)c2Nc2nc(N)nc(C(C)(C)F)n2)c1` [Example 26], the figures for the herbicidal activity in the experiment on Echinocloa crus-galli, with Abutilon theophrasti and in the experiment with Setaria faberi were 80%, 85% and 70%, respectively.

Consider `COC(C)(C)c1nc(N)nc(Nc2c(F)c(F)cc(F)c2OCc2ccccc2F)n1` [Example 248], for which the herbicidal activity with Amaranthus retroflexus, in the experiment with Echinocloa crus-galli and with Abutilon theophrasti was 100% throughout.

With `CC(C)(F)c1nc(N)nc(Nc2c(F)c(F)cc(F)c2OCc2cccc(Cl)c2)n1` [Example 217], the herbicidal activity with Echinocloa crus-galli was 100%; with Abutilon theophrasti, 98%; with Setaria faberi it was 100%.

Regarding `CC(C)c1nc(N)nc(Nc2c(F)c(F)cc(F)c2OCc2ccccc2)n1` [Example 254], the herbicidal activity in the experiment with Echinocloa crus-galli, in the experiment on Abutilon theophrasti and with Setaria faberi was 100% in each case.

Take `CC(C)(F)c1nc(N)nc(Nc2c(F)cccc2OC(F)(F)c2cccc(F)c2)n1` [Example 130]: the herbicidal activity in the experiment on Echinocloa crus-galli, in the experiment on Abutilon theophrasti and in the experiment with Setaria faberi was 100% in each case.
